# Test results from patent US8138304B2, “Neural regeneration peptides and formulations thereof” (Neuren Pharmaceuticals Limited, priority 2005, dated 2012).
# Where no end group is shown, it is not given here.
# Tests used:
# cerebellar microexplants = test: Cerebellar microexplant survival assay (3-NP/glutamate injury); assay type: cell-based, Wistar rat; conditions: 100 fM; administered simultaneously with toxins (0.5 mM 3-NP, 0.5 mM glutamate), severe injury
# Protocol: (§1) Laminated cerebellar cortices of the two hemispheres were explanted from a P3, P4, P7 or P8 Wistar rat, cut into small pieces in GBSS with 0.65% D(+)glucose solution, and triturated by a 0.4 mm gauge needle and subsequently pressed through a 125 μm pore size sieve. The obtained microexplants were centrifuged (60×g) 2 times for a medium exchange into serum-free BSA-supplemented START V-medium (Biochrom). Finally, the microexplants were reconstituted in 500 μl STARTV-medium. For culturing, 38 μl of the cell suspension was incubated for 1 hour on a poly-D-lysine-coated cover slip in a 35 mm Petri dish under an atmosphere comprising 5% CO2 in air and 100% humidity at 34° C. Subsequently, the injuring toxins (as described below), NRPs and 1 ml of STARTV-medium were added, and the cultures were evaluated after 2-3 days of culture.
# Toxicological and drug administration experiments were designed such that 1/100 parts of toxin and neuroprotective drug were administered simultaneously to the freshly prepared cerebellar microexplants. […]
# For statistical analysis of survival, four fields (each field having an area of 0.65 mm^2) of each fixed cerebellar culture with the highest cell densities were chosen, and cells displaying neurite outgrowth were counted (survival assay).
# cerebellar cells = test: Cerebellar microexplant proliferation assay (BrdU); assay type: cell-based, Wistar rat
# Protocol: as §1
# Toxicological and drug administration experiments were designed such that 1/100 parts of toxin and neuroprotective drug were administered simultaneously to the freshly prepared cerebellar microexplants. Glutamate was prepared as a 50 mM stock solution in MilliQ water while 50 mM 3-nitropropionic acid was pH-adjusted (pH 6.8-7.2) in MilliQ water. The concentrations of the oxidative stress inducing toxin, 3-nitropropionic acid (3-NP), and the excitotoxin, glutamate, in the assay were 0.5 mM each. Lyophilized peptides were reconstituted in PBS or 100 μg/ml human transferrin as a 10 μM stock solution. Subsequently, serial dilutions were made. Cerebellar microexplants were cultivated for 48-72 hours at 34° C., 5% CO2 in air and 100% humidity before they were fixed by increasing amounts of paraformaldehyde (0.4%, 1.2%, 3% and 4%—each treatment 2-3 min).
# Using the toxins described above, cerebellar explants were exposed for 24 hours, at the beginning of culturing to dilutions of NRP (survival assay) or NRP and 0.1 μM BrdU (proliferation assay). Subsequently, 80% of the medium was changed without addition of new toxins and NRPs. […]
# For statistical analysis of proliferation BrdU-positive nuclei were counted. Statistical significance was measured by Student's t-test.
# [1] = tested on: embryonic mouse neural stem cells (NSCs); test: Haptotactic migration assay in injury conditions (activated astroglial monolayer); assay type: cell-based; conditions: 100 fM in lower compartment; TGFβ1 and scratch-activated astrocyte monolayer; 24 hrs
# Protocol: The NRP of SEQ ID NO: 1 was tested for migration-inducing/chemoattractive activity on mouse neural stem cells in a haptotactic migration assay in injury conditions, as described below.
# P1 (postnatal day 1) Wistar or Sprague Dawley rats were sacrificed by decapitation. Cortical hemispheres were removed and collected into separate tubes containing 4 ml DMEM—1 cortex per tube. The tissue was mechanically triturated. Cells were transferred into medium using a sterile pipette and filtered through a 100 um cell strainer into a 50 ml centrifuge tube. Each tube was stocked up to 50 ml with DMEM. The tubes were centrifuged for 5 mins at 350×g at 22° C. The cells were resuspended in 40 ml of DMEM+10% FBS. The cells were then seeded into a 12-well plate+5 nM ocadaic acid (to remove neurons by inducing apoptotic cell death) and incubated at 37° C./10% CO2 for 24 hrs […]. The medium+FBS was replaced after 1 day with fresh DMEM+10% FBS. The cell growth was monitored until confluency (14-18 days).
# Induction of injuries to the astrocytic monolayer was accomplished using the pharmacological agent transforming growth factor β1 (TGFβ1) and simultaneous mechanical scratching of the monolayer in order to activate astrocytics. […]
# Migrated stem cell number of labelled cells were analysed after 24 hrs by a fluorescence-based computerized imaging system (Discovery-1).
# [2] = tested on: purified primary placental trophoblasts; test: TNF-alpha-induced cytotoxicity in isolated trophoblasts (survival assay); assay type: cell-based, human; conditions: 24 hrs pre-incubation
# Protocol: Human trophoblast cells were isolated from term placentas with prior approval by the Ethics Committee of the University of Auckland and consent of the patients. The maternal decidua was removed, exposing the villous interior of the placenta. Pieces of villous tissue were cut out and washed thoroughly with PBS before digestion using 0.25% trypsin. The digest was then diluted in Locke Ringers Buffer and DNAase I. Digestion of connective tissue surrounding the placental cells was carried out while stirring the mixture with a magnetic stirrer at a temperature of 37° C. The process was repeated 8 times, with the last 6 supernatants being collected in a bottle containing fetal bovine serum (FBS). The digestion step produced a heterogeneous dispersed cell preparation. The pooled supernates was centrifuged for 7 minutes at 1200 rpm. The cell pellet was resuspended in PBS and centrifuged. This was followed by a 10-minute incubation in erythrocyte lysis buffer with an underlayer of FBS in the last 2 minutes, followed by centrifugation for 7 minutes. Cells were resuspended in M199 medium and recentrifuged.
# Cells were then purified using a percoll gradient (5, 20, 30, 35, 40, 50 and 60%). The gradients were prepared with the 60% percoll on the bottom, with decreasing concentrations near the top of the gradient. Cells were introduced into the 5% percoll layer. The cells were centrifuged for 20 minutes at 1200G to separate trophoblasts from debris and other cell types, leaving a band of trophoblasts in the 40% percoll band. This band was collected, the cells washed in M199 medium centrifuged and finally counted and plated according to the methods of Keelan et al, 1998.
# In this series of experiments, we studied whether NRP-5RG D6A was able to protect purified primary placental trophoblasts against TNF-alpha mediated injury.
# In this study, we plated 30,000 freshly isolated trophoblast cells per well in microtiter well plates followed by pre-incubation with NRP-5RG D6A (SEQ ID NO: 1) for 24 hours. […]
substance,measurement,setting,value
"REGRRAAPGRAGG-NH2 (listed as Homo sapiens) [SEQ ID NO: 1, 13-mer NRP analogue]","survival rates, neuroprotection",cerebellar microexplants,39.1%
same,proliferation rate compared to the uninjured vehicle,"cerebellar cells; 1 pM, BrdU",increased the proliferation rate in these cultures significantly
same,proliferation compared against injured cells without NRP,"cerebellar cells; p<0.01, SEQ ID NO: 1 at 1 pM, SEQ ID NO: 2 at 100 pM",highly proliferation-inducing
same,more stem cells migrated than vehicle-treated controls,[1],69.1%
same,protection from TNF-alpha mediated injury,"[2]; 1 pM, TNF-alpha 5 or 50 ng/ml plus interferon gamma, 48 h",100%
same,cytoprotection from TNF-alpha mediated injury,[2]; 10 pM,protective
same,cytoprotection from TNF-alpha mediated injury,[2]; 1 nM,not statistically significant
